The values that follow are results of earlier work, collected in patent publication US8618066B1 (priority 2003, dated 2013).

Entries after “also recorded” stand apart in the source; their conditions may differ. No end group written: not given here.

One data set has as its system Gram+ & Gram− bacteria, fungi, virus, mammalian/cancer cells. As to conditions: cited from earlier work.
As to “Penaeidin-4a: peptide, source Penoeid shrimp (HSSGYTRPLPKPSRPIFIRPIGCDVCYGIPSSTARLCCFRYGDCCHR; Penaeidin-4a; listed as Penaeus vannamei)”, the Activity result is “Gram+ & Gram−, Fungi”. For the substance “Nigrocin 1: peptide, source Rana nigromaculata (GLLDSIKGMAISAGKGALQNLLKVASCKLDKTC; Nigrocin 1; listed as Rana nigromaculata)”, the Activity entry is “Gram+ & Gram−, Fungi”.

Turning to “Peptide PGQ: peptide, source African clawed frog (GVLSNVIGYLKKLGTGALNAVLKQ; Peptide PGQ; listed as Xenopus laevis)”, the Activity entry is given as “Gram+ & Gram−, Fungi”. Turning to “Antimicrobial peptide 1: peptide, source Common ice plant (AKCIKNGKGCREDQGPPFCCSGFCYRQVGWARGYCKNR; Antimicrobial peptide 1; listed as Mesembryanthemum crystallinum)”, the Activity entry is “Gram+ & Gram−, Fungi”. In the case of “AMP1 (MJ-AMP1): peptide, source Garden four-o'clock (QCIGNGGRCNENVGPPYCCSGFCLRQPGQGYGYCKNR; antimicrobial peptidic agent1 (MJ-antimicrobial peptidic agent1); listed as Mirabilis jalapa)”, the Activity entry is “Gram+, Fungi”. Consider “Penaeidin-1: peptide, source Penoeid shrimp (YRGGYTGPIPRPPPIGRPPLRLVVCACYRLSVSDARNCCIKFGSCCHLVK; Penaeidin-1; listed as Penaeus vannamei)”, for which the Activity result was “Gram+ & Gram−, Fungi”. Take “PW2: peptide, source Synthetic (HPLKQYWWRPSI; Synthetic PW2)”: the Activity entry was “Fungi”.

Turning to “SEQ ID No. 28: synthetic antifungal peptide, Table 1 (HRF)”, the Activity result is “Fungi”. For the substance HNP-3 Defensin: peptide, source Human, the Activity result was “Gram+ & Gram−, Virus, Fungi”.

With “Ginkbilobin: source Ginkgo (ANTAFVSSAHNTQKIPAGAPFNRNLRAMLADLRQNAAFAG; Ginkbilobin; listed as Ginkgo biloba)”, the Activity result was “Gram+ & Gram−, Virus, Fungi”.

For the substance “Brevinin-1BB: peptide, source Rio Grande leopard frog (FLPAIAGMAAKFLPKIFCAISKKC; Brevinin-1BB; listed as Rana berlandieri)”, the Activity entry is recorded as “Gram+ & Gram−, Fungi”.

As to “SEQ ID No. 26: synthetic antifungal peptide, Table 1 (LRF)”, the Activity result is recorded as “Fungi”. On to “SEQ ID No. 39: synthetic antifungal peptide, Table 1 (FHFKLRF)”, for which the Activity entry is “Fungi”.

Regarding “Histone H2b-3 (HLP-3) (Fragment): source Rainbow trout (PDPAKTAPKKKSKKAVT; Oncorhynchus mykiss; Histone H2B-3(HLP-3)(Fragment))”, the Activity result is “Fungi”. As to “Indolicidin: peptide, source Bos Taurus (ILPWKWPWWPWRR; listed as Bos taurus)”, the Activity result was “Gram+ & Gram−, Virus, Fungi”. HNP-1 Defensin: peptide, source Human: the Activity result was “Gram+ & Gram−, Virus, Fungi”.

On to “Lingual antimicrobial peptide: peptide, source Bovine (GFTQGVRNSQSCRRNKGICVPIRCPGSMRQIGTCLGAQVKCCRRK; Lingual antimicrobial peptide; listed as Bos taurus)”, for which the Activity entry was “Gram+ & Gram−, Fungi”. Consider “Aurein 1.1: peptide, source Southern bell frog (GLFDIIKKIAESI; Aurein 1.1; listed as Litoria raniformis)”, for which the Activity entry was “Gram+ & Gram−, Fungi”. In the case of “AC-AMP2: peptide, source Amaranthus caudatus (VGECVRGRCPSGMCCSQFGYCGKGPKYCGR; ends and bridges not checked; cysteine pairing not given here; listed as Amaranthus caudatus)”, the Activity entry is recorded as “Gram+, Fungi”. On to “Pseudin 1: peptide, source Paradoxical frog (GLNTLKKVFQGLHEAIKLINNHVQ; Pseudin 1; listed as Pseudis paradoxa)”, for which the Activity result is reported as “Gram+ & Gram−, Fungi”.

On to “Protegrin 4: peptide, source Pig (RGGRLCYCRGWICFCVGR; Protegrin 4; listed as Sus scrofa)”, for which the Activity result is “Gram+ & Gram−, Virus, Fungi”.

Turning to “Skin peptide tyrosine-tyrosine: peptide, source Two-colored leaf frog”, the Activity entry is “Gram+ & Gram−, Fungi”. Regarding RQRVEELSKFSKKGAAARRRK [Misgurin], the Activity result was “Gram+ & Gram−, Fungi”. On to “Lactoferricin B: peptide, source Bovine (FKCRRWQWRMKKLGAPSITCVRRAF; Lactoferricin B; listed as Bos taurus)”, for which the Activity entry is “Gram+ & Gram−, Virus, Fungi,”. With FRLKFHF [SEQ ID No. 197], the Activity result was “Gram+ & Gram−, Fungi”. Take “Thanatin: peptide, source Podisus maculiventris (GSKKPVPIIYCNRRTGKCQRM; listed as Podisus maculiventris)”: the Activity result is listed as “Gram+ & Gram−, Fungi”. For the substance “Gaegurin-1: peptide, source Wrinkled frog (SLFSLIKAGAKFLGKNLLKQGACYAACKASKQC; Gaegurin-1; listed as Rana rugosa)”, the Activity result was “Gram+ & Gram−, Fungi”.

For “SEQ ID No. 180: synthetic antifungal peptide, Table 1 (YNLEDHPQGDHPKLQLWHW)”, the Activity entry was “Fungi”. Consider “SEQ ID No. 32: synthetic antifungal peptide, Table 1 (FFKLRF)”, for which the Activity result is reported as “Fungi”. Turning to “Ranalexin-1CB: peptide, source Gree frog (FLGGLMKAFPAIICAVTKKC; Rana clamitans; Ranalexin-1CB)”, the Activity entry is “Gram+ & Gram−, Fungi”. On to “Seminalplasmin: peptide, source Bovine (SDEKASPDKHHRFSLSRYAKLANRLANPKLLETFLSKWIGDRGNRSVK; Seminalplasmin; listed as Bos taurus)”, for which the Activity entry is listed as “Gram+ & Gram−, Fungi,; also recorded: Mammalian cells”. In the case of “SEQ ID No. 44: synthetic antifungal peptide, Table 1 (MFKLRF)”, the Activity entry is “Fungi”. Regarding “SEQ ID No. 181: synthetic antifungal peptide, Table 1 (YNLEPQGPKLQLWHW)”, the Activity entry is on record as “Fungi”. In the case of “Nigrocin 2: peptide, source Rana nigromaculata (GLLSKVLGVGKKVLCGVSGLC; Nigrocin 2; listed as Rana nigromaculata)”, the Activity entry is listed as “Gram+ & Gram−, Fungi”.

Still in this data set, the particulars now being: classes of organisms/cells the peptide is active against; cited from earlier work.
For “Opistoporin 1: peptide, source African yellow leg scorpion (GKVWDWIKSTAKKLWNSEPVKELKNTALNAAKNLVAEKIGATPS; Opistoporin 1; listed as Opistophthalmus carinatus)”, the Activity result is given as “Gram+ & Gram−, Fungi,; also recorded: Mammalian cells”. With “Opistoporin 2: peptide, source African yellow leg scorpion (GKVWDWIKSTAKKLWNSEPVKELKNTALNAAKNFVAEKIGATPS; Opistoporin 2; listed as Opistophthalmus carinatus)”, the Activity entry was “Gram+ & Gram−, Fungi,; also recorded: Mammalian cells”.
